Results published in patent publication US7064116B2, “GABAA modulating neurosteroids” (priority 2000, dated 2006).
pEC50: −log10 of the molar value.

Key:
[1] = test system: benzodiazepine site of the GABAA/BZ/chloride channel complex (rat brain GBR enriched synaptosomal preparation); test: Enhancement of [3H]-Flunitrazepam binding to the benzodiazepine site in rat brain synaptosomal membranes; conditions: for EC50 / pEC50: enhancement of 1 nM [3H]-Flunitrazepam binding, 40 μg rat brain synaptosomal membrane, 30° C., 30 min; for Maximum stimulation: maximum stimulation of 1 nM [3H]-Flunitrazepam specific binding, normalized to control without test compound

SMILES	melting point [°C]	EC50 [1]	pEC50 [1]	Maximum stimulation [1] [%]
CC(O)C#C[C@H]1CC[C@H]2[C@@H]3CC[C@H]4C[C@H](O)CC[C@]4(C)[C@H]3CC[C@]12C (stereo partly drawn) [17β-(3-hydroxy-1-butynyl)-5α-androstane-3α-ol]	169 to 171	inactive	–	–
C#CC(O)[C@H]1CC[C@H]2[C@@H]3CC[C@H]4CC(O)CC[C@]4(C)[C@H]3CC[C@]12C (single isomer, unassigned) [17β-(1-hydroxy-2-propynyl)-5α-androstan-3-ol (less polar C-20 epimer), 17β-(1-hydroxy-2-propynyl)-5α-androstan-3-ol]	–	inactive	–	–
C[C@]12CC[C@@H](N=[N+]=[N-])C[C@@H]1CC[C@@H]1[C@@H]2CC[C@]2(C)[C@@H](C(=O)CBr)CC[C@@H]12	108 to 110	–	–	–
CC(=O)C#C[C@H]1CC[C@H]2[C@@H]3CC[C@H]4C[C@H](O)CC[C@]4(C)[C@H]3CC[C@]12C [17β-(3-oxo-1-butynyl)-5α-androstan-3α-ol]	148 to 150	inactive	–	–
C=C=CC(O)[C@H]1CC[C@H]2[C@@H]3CC[C@H]4CC(O)CC[C@]4(C)[C@H]3CC[C@]12C (mixture of isomers) [17β-(1-hydroxy-2,3-butadienyl)-5α-androstane-3ol (mixture of C-20 epimers), 17β-(1-hydroxy-2,3-butadienyl)-5α-androstane-3-ol]	174 to 177	–	8.23	45.8
Cc1ccc(C#C[C@H]2CC[C@H]3[C@@H]4CC[C@H]5C[C@H](O)CC[C@]5(C)[C@H]4CC[C@]23C)cc1 [17β-[2-(4-tolyl)ethynyl]-5α-androstane-3α-ol]	178 to 180	–	5.62	52.6
COC(=O)C#C[C@H]1CC[C@H]2[C@@H]3CC[C@H]4C[C@H](O)CC[C@]4(C)[C@H]3CC[C@]12C [17β-(2-methoxycarbonylethynyl)-5α-androstane-3α-ol]	135 to 137	–	6.29	55.6
CC(=O)[C@H]1CC[C@H]2[C@@H]3CC[C@H]4C[C@H](N=[N+]=[N-])CC[C@]4(C)[C@H]3CC[C@]12C [3α-azido-5α-pregnan-20-one, 3α-Azido-5α-pregnan-20-one]	159 to 162	inactive	–	–
C#CC(OC)[C@H]1CC[C@H]2[C@@H]3CC[C@H]4C[C@H](O)CC[C@]4(C)[C@H]3CC[C@]12C (mixture of isomers) [17β-(1-methoxy-2-propynyl)-5α-androstan-3α-ol (mixture of C-20 epimers), 17β-(1-methoxy-2-propynyl)-5α-androstan-3α-ol]	161 to 163	–	8.35	18.1
C[C@]12CC[C@@H](N=[N+]=[N-])C[C@@H]1CC[C@@H]1[C@@H]2CC[C@]2(C)[C@@H](C(=O)CN=[N+]=[N-])CC[C@@H]12 [3α,21-di-azido-5α-pregnan-20-one]	133 to 135	–	6.50	16.4
CC(=O)[C@H]1CC[C@H]2[C@@H]3CC[C@H]4C[C@H](O)CC[C@]4(C)[C@H]3CC[C@]12C [3α-hydroxy-5α-pregnan-20-one, reference compound]	–	–	6.67	36
C[C@]12CC[C@@H](O)C[C@@H]1CC[C@@H]1[C@@H]2CC[C@]2(C)[C@@H](C#CBr)CC[C@@H]12 [17β-(2-bromoethynyl)-5α-androstane-3α-ol]	165 to 167	–	6.49	72.7
COc1ccc(C#CC(O)[C@H]2CC[C@H]3[C@@H]4CC[C@H]5C[C@H](O)CC[C@]5(C)[C@H]4CC[C@]23C)cc1 (single isomer, unassigned) [17β-[1-hydroxy-3-(4-methoxyphenyl)-2-propynyl]-5α-androstan-3α-ol]	–	–	7.44	23.3
